# Earlier results, collected in patent US8828934B2, “Mnk kinase homologous proteins involved in the regulation of energy homeostasis and organelle metabolism” (Boehringer Ingelheim International GmbH, priority 2001, dated 2014).
# Key:
# [1] = system: Mnk2 (Mnk2a or Mnk2b) or Mnk1; conditions: compound added to cell culture cells transfected with Mnk2 (Mnk2a or Mnk2b) or Mnk1
# [2] = not cytotoxic up to this concentration
smiles,measurement,setting,value
Nc1ncnc2n[nH]c(Nc3ccc(F)cc3)c12 [CGP57380],reduction in phosphorylated eIF4E,[1],strong reduction in phosphorylated eIF4E
same,concentration up to which not cytotoxic,[2],> 30 µM
